Results published in patent US7265120B2, “Pyrazine derivatives and pharmaceutical use thereof” (Astellas Pharma Inc., priority 2004, dated 2007).

Legend:
human A1 receptor = molecular target: T1, human A1 receptor (Homo sapiens, UniProt P30542); test: Adenosine antagonistic activity, radioligand binding ([3H]DPCPX); settings: [3H]DPCPX 4.5 nM
T1 sequence (P30542 1-326): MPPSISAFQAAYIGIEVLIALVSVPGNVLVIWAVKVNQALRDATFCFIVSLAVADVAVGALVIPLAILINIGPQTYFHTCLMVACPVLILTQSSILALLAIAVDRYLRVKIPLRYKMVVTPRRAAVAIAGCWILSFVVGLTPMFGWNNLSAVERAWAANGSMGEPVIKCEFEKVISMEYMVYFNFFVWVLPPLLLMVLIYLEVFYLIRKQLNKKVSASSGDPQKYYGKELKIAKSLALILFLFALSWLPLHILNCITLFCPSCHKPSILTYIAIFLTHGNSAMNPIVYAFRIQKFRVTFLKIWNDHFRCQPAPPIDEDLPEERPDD
Description: (§1) Test 1: Adenosine Antagonistic Activity
(§2) The adenosine antagonistic activity [Ki (nM)] of the test compound was examined by radioligand binding techniques using 8-cyclopentyl-1,3-dipropylxanthine, [dipropyl-2,3-^3H(N)] ([^3H]DPCPX, 4.5 nM) for human A1 receptor and [^3H]CGS 21680 (20 nM) for human A2a receptor.

human A2a receptor = human A2a receptor (Homo sapiens, UniProt P29274); test: Adenosine antagonistic activity, radioligand binding ([3H]CGS 21680); settings: [3H]CGS 21680 20 nM
Chain of human A2a receptor (P29274 whole entry): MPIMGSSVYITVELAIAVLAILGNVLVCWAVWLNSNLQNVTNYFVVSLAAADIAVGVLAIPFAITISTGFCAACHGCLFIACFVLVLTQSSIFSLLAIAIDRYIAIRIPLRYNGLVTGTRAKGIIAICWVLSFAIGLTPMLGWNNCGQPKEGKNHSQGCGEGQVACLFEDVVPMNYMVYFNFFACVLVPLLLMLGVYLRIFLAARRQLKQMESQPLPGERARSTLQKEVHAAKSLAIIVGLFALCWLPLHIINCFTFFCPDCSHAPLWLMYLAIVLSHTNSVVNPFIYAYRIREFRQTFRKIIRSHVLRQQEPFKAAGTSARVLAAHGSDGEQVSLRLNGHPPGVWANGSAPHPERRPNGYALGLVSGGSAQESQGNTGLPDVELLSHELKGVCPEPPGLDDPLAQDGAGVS
Description: as §1, §2

ddY mice = test: Anticatalepsy activity in mouse (haloperidol-induced catalepsy, bar test); format: in vivo; settings: 3.2 mg/kg orally, ddY mice n=7; haloperidol 0.32 mg/kg i.p. 30 min after compound; measured 30 min after injection, up to 30 sec
Description: Test 2: Anticatalepsy Activity in Mouse [I] Test Method
The test compound (3.2 mg/kg) was administered orally with ddY mice (n=7). Then, haloperidol (0.32 mg/kg) was injected intraperitoneally 30 min. after the administration of the compound. Thirty min. after the injection, the cataleptic responses of mice were measured. The forelimbs of each mouse were placed on a 3 cm high, 3 mm wide horizontal bar, and the duration of cataleptic posture was measured for up to 30 sec.

Molecule `Cn1nc(-c2nc(C#N)c(N)nc2-c2ccccc2)ccc1=O` [Example 17, 3-Amino-6-(1-methyl-6-oxo-1,6-dihydro-3-pyridazinyl)-5-phenyl-2-pyrazinecarbonitrile] has a Ki (human A1 receptor) of 11.2 nM, a melting point greater than 250 °C and a Ki (human A2a receptor) of 1.72 nM. The “Manifestation rate of Catalepsy (number of mouse)” value (“Manifestation rate of Catalepsy” below) (ddY mice) was 0/7.

For `CC(C)n1nc(-c2ncc(N)nc2-c2ccc(F)cc2)ccc1=O` [Example 36, 6-[5-Amino-3-(4-fluorophenyl)-2-pyrazinyl]-2-isopropyl-3(2H)-pyridazinone], the Ki (human A1 receptor) was 23 nM, the Ki (human A2a receptor) was 6.89 nM and the “Manifestation rate of Catalepsy” value (ddY mice) was 0/7.

With `CC(C)n1nc(-c2nc(Cl)c(N)nc2-c2ccc(F)cc2)ccc1=O` [Example 37, 6-[5-Amino-6-chloro-3-(4-fluorophenyl)-2-pyrazinyl]-2-isopropyl-3(2H)-pyridazinone] the Ki (human A1 receptor) was 15.9 nM, the Ki (human A2a receptor) was 2.65 nM and the “Manifestation rate of Catalepsy” value (ddY mice) was 0/7.

`CC(C)n1nc(-c2nc(Br)c(N=S(C)C)nc2-c2ccccc2)ccc1=O` [Example 66, 6-{6-bromo-5-[(dimethyl-lambda˜4˜-sulfanylidene)amino]-3-phenyl-2-pyrazinyl}-2-isopropyl-3(2H)-pyridazinone] showed a Ki (human A1 receptor) of 16 nM, a melting point of 220 to 224 °C and a Ki (human A2a receptor) of 6.79 nM. For the same molecule, the “Manifestation rate of Catalepsy” value (ddY mice) was 1/7.

`CC(C)n1nc(-c2nc(OCCCCOCc3ccccc3)c(N)nc2-c2ccccc2)ccc1=O` [Example 169, 6-{5-amino-6-[4-(benzyloxy)butoxy]-3-phenyl-2-pyrazinyl}-2-isopropyl-3(2H)-pyridazinone] gave a melting point of 96.5 to 97.5 °C.

Molecule `CC(C)n1nc(-c2nc(OCCN(C)C)c(N)nc2-c2ccccc2)ccc1=O` [Example 170, 6-{5-amino-6-[2-(dimethylamino)ethoxy]-3-phenyl-2-pyrazinyl}-2-isopropyl-3(2H)-pyridazinone] has a melting point of 136 to 137.5 °C.

Molecule `CC(C)n1nc(-c2nc(OCC(F)(F)F)c(N)nc2-c2ccccc2)ccc1=O` [Example 171, 6-[5-amino-3-phenyl-6-(2,2,2-trifluoroethoxy)-2-pyrazinyl]-2-isopropyl-3(2H)-pyridazinone] has a melting point of 233 to 235 °C.

For `CC(C)n1nc(-c2nc(OCCN3CCOCC3)c(N)nc2-c2ccccc2)ccc1=O` [Example 172, 6-{5-amino-6-[2-(4-morpholinyl)ethoxy]-3-phenyl-2-pyrazinyl}-2-isopropyl-3(2H)-pyridazinone], the melting point was 139 to 143 °C.

For `CC(C)n1nc(-c2[nH]c(=O)c(N)nc2-c2ccccc2)ccc1=O` [Example 174, 6-(5-amino-6-oxo-3-phenyl-1,6-dihydro-2-pyrazinyl)-2-isopropyl-3(2H)-pyridazinone], the melting point was greater than 250 °C.

`CC(C)n1nc(-c2nc(OCCc3ccccc3)c(N)nc2-c2ccccc2)ccc1=O` [Example 174, 6-[5-amino-3-phenyl-6-(2-phenylethoxy)-2-pyrazinyl]-2-isopropyl-3(2H)-pyridazinone] showed a melting point of 173 to 176 °C.

Work on `CC(C)n1nc(-c2nc(OCCCc3ccccc3)c(N)nc2-c2ccccc2)ccc1=O` [Example 175, 6-[5-amino-3-phenyl-6-(3-phenylpropoxy)-2-pyrazinyl]-2-isopropyl-3(2H)-pyridazinone] yielded a melting point of 105 to 106.5 °C.

Molecule `CC(C)n1nc(-c2nc(OC3CCN(Cc4ccccc4)C3)c(N)nc2-c2ccccc2)ccc1=O` (stereo not drawn) [Example 176, 6-{5-amino-6-[(1-benzyl-3-pyrrolidinyl)oxy]-3-phenyl-2-pyrazinyl}-2-isopropyl-3(2H)-pyridazinone] has a melting point of 179 to 181 °C.

For `CC(C)n1nc(-c2nc(OC3CCN(Cc4ccccc4)CC3)c(N)nc2-c2ccccc2)ccc1=O` [Example 178, 6-{5-amino-6-[(1-benzyl-4-piperidinyl)oxy]-3-phenyl-2-pyrazinyl}-2-isopropyl-3(2H)-pyridazinone], the melting point was 148 to 150.5 °C.

`COCCOc1nc(-c2ccc(=O)n(C)n2)c(-c2ccccc2)nc1N` [Example 180, 6-[5-amino-6-(2-methoxyethoxy)-3-phenyl-2-pyrazinyl]-2-methyl-3(2H)-pyridazinone] gave a melting point of 139 to 141 °C.

In the case of `Cn1nc(-c2nc(OCCN3CCOCC3)c(N)nc2-c2ccccc2)ccc1=O` [Example 181, 6-{5-amino-6-[2-(4-morpholinyl)ethoxy]-3-phenyl-2-pyrazinyl}-2-methyl-3(2H)-pyridazinone], the melting point was 185 to 187 °C.

Molecule `Cn1nc(-c2nc(OCc3ccccc3)c(N)nc2-c2ccccc2)ccc1=O` [Example 182, 6-[5-amino-6-(benzyloxy)-3-phenyl-2-pyrazinyl]-2-methyl-3(2H)-pyridazinone] has a melting point of 185 to 187 °C.

Work on `Cn1nc(-c2nc(OCCCc3ccccc3)c(N)nc2-c2ccccc2)ccc1=O` [Example 183, 6-[5-amino-3-phenyl-6-(3-phenylpropoxy)-2-pyrazinyl]-2-methyl-3(2H)-pyridazinone] yielded a melting point of 91 to 94 °C.

With `Cn1nc(-c2nc(OC3CCN(Cc4ccccc4)CC3)c(N)nc2-c2ccccc2)ccc1=O` [Example 185, 6-{5-amino-6-[(1-benzyl-4-piperidinyl)oxy]-3-phenyl-2-pyrazinyl}-2-methyl-3(2H)-pyridazinone] the melting point was 147 to 149 °C.

`Cn1nc(-c2nc(Oc3ccc(F)cc3)c(N)nc2-c2ccccc2)ccc1=O` [Example 186, 6-[5-amino-6-(4-fluorophenoxy)-3-phenyl-2-pyrazinyl]-2-methyl-3(2H)-pyridazinone] showed a melting point of 229 to 231 °C.

With `Cn1nc(-c2nc(O)c(N)nc2-c2ccccc2)ccc1=O` [Example 187, 6-(5-amino-6-hydroxy-3-phenyl-2-pyrazinyl)-2-methyl-3(2H)-pyridazinone] the melting point was greater than 250 °C.

`Cn1nc(-c2nc(OCCc3ccccc3)c(N)nc2-c2ccccc2)ccc1=O` [Example 187, 6-[5-amino-3-phenyl-6-(2-phenylethoxy)-2-pyrazinyl]-2-methyl-3(2H)-pyridazinone] gave a melting point of 156 to 159 °C.

In the case of `CC(C)n1nc(-c2nc(C#N)c(N)nc2-c2ccccc2Br)ccc1=O` [Example 188, 3-amino-5-(2-bromophenyl)-6-(1-isopropyl-6-oxo-1,6-dihydro-3-pyridazinyl)-2-pyrazinecarbonitrile], the melting point was 240 to 243 °C.

For `CC(C)n1nc(-c2nc(C#N)c(N=CN(C)C)nc2-c2ccccc2Br)ccc1=O` [Example 188, N′-[6-(2-bromophenyl)-3-cyano-5-(1-isopropyl-6-oxo-1,6-dihydro-3-pyridazinyl)-2-pyrazinyl]-N,N-dimethylimidoformamide], the melting point was 197 to 199 °C.

With `CC(C)n1nc(-c2nc(C(N)=O)c(N)nc2-c2ccccc2Br)ccc1=O` [Example 190, 3-amino-5-(2-bromophenyl)-6-(1-isopropyl-6-oxo-1,6-dihydro-3-pyridazinyl)-2-pyrazinecarboxamide] the melting point was 132 to 135 °C.

Work on `CC(C)n1nc(-c2nc(C(N)=O)c(N)nc2-c2cccs2)ccc1=O` [Example 191, 3-amino-6-(1-isopropyl-6-oxo-1,6-dihydro-3-pyridazinyl)-5-(2-thienyl)-2-pyrazinecarboxamide] yielded a melting point of 238 to 240 °C.

For `CC(C)n1nc(-c2nc(C(N)=O)c(N)nc2-c2ccccc2Br)ccc1=O` [Example 192, 3-amino-5-(2-bromophenyl)-6-(1-isopropyl-6-oxo-1,6-dihydro-3-pyridazinyl)-2-pyrazinecarboxamide], the melting point was 240 to 243 °C.

`COc1ccc(-c2nc(N)c(C(N)=O)nc2-c2ccc(=O)n(C(C)C)n2)cn1` [Example 194, 3-amino-6-(1-isopropyl-6-oxo-1,6-dihydro-3-pyridazinyl)-5-(6-methoxy-3-pyridyl)-2-pyrazinecarboxamide] showed a melting point of 250 to 252 °C.

`CC(C)n1nc(-c2nc(C#N)c(C#N)nc2-c2ccccc2Br)ccc1=O` [Example 195, 5-(2-bromophenyl)-6-(1-isopropyl-6-oxo-1,6-dihydro-3-pyridazinyl)-2,3-pyrazinedicarbonitrile] showed a melting point of 159.5 to 161 °C.

`COc1ccc(CNc2nc(-c3ccccc3Br)c(-c3ccc(=O)n(C(C)C)n3)nc2C#N)cc1` [Example 196, 5-(2-bromophenyl)-6-(1-isopropyl-6-oxo-1,6-dihydro-3-pyridazinyl)-3-[(4-methoxybenzyl)amino]-2-pyrazinecarbonitrile] showed a melting point of 76 to 78 °C.

Work on `CC(C)n1nc(-c2nc(N)c(C#N)nc2-c2ccccc2Br)ccc1=O` [Example 197, 3-amino-6-(2-bromophenyl)-5-(1-isopropyl-6-oxo-1,6-dihydro-3-pyridazinyl)-2-pyrazinecarbonitrile] yielded a melting point of 241 to 243 °C.

In the case of `CC(C)n1nc(-c2nc(C(=O)O)c(N)nc2-c2ccccc2Br)ccc1=O` [Example 198, 3-amino-5-(2-bromophenyl)-6-(1-isopropyl-6-oxo-1,6-dihydro-3-pyridazinyl)-2-pyrazinecarboxylic acid], the melting point was 237 °C (dec.).

`CC(C)n1nc(-c2ncc(N)nc2-c2ccccc2Br)ccc1=O` [Example 199, 6-[5-amino-3-(2-bromophenyl)-2-pyrazinyl]-2-isopropyl-3(2H)-pyridazinone] showed a melting point of 189 to 191 °C.
